Consider one compound from patent US12446577B2 (priority 2018, dated 2025).

For one data set, the system named is Alternaria solani. Nature of the data set: Mycelium growth inhibition on PDA (Example 2). The format is cell-based. The settings on record: 6 days at 25° C; for Average mycellium diameter: n = 4; for % inhibition of the pathogens: vs untreated PDA. As for the experimental part:
(§1) Strains used for this trial (Table 3) were kept and refreshed on Potato Dextrose Agar (PDA) at 25° C.
(§2) In a first setup, a test composition was directly added to PDA (about 20 mL/petri dish) (Table 4). Plugs of agar (diameter 8 mm) from two week-old cultures were placed at the center of the PDA plates. Each test was performed in 4 repetitions. The petri dishes were then incubated at 25° C. After 6 days of incubation, the diameter of the colonies was measured in 2 perpendicular directions. The percentage of inhibition was calculated for each tested composition and compared to the untreated PDA.

Data set [1] deals with Botrytis cinerea (grapevine). The experiment in a line: Mycelium growth inhibition on PDA (Example 2). The following applies: 6 days at 25° C; for Average mycellium diameter: n = 4; for % inhibition of the pathogens: vs untreated PDA. Type of data set: cell-based. As for the experimental part:
as §1, §2

A further data set deals with Colletotrichum coccodes. The experiment in a line: Mycelium growth inhibition on PDA (Example 2). Type of data set: cell-based. The following applies: 6 days at 25° C; for Average mycellium diameter: n = 4; for % inhibition of the pathogens: vs untreated PDA. As for the experimental part: as §1, §2
The subject of data set [2] is Botrytis cinerea (lettuce). The experiment in a line: Mycelium growth inhibition on PDA (Example 2). Type of data set: cell-based. The following applies: 6 days at 25° C; for Average mycellium diameter: n = 4; for % inhibition of the pathogens: vs untreated PDA. The procedure:
as §1, §2

The test system of a further data set is lettuce plants. The experiment in a line: Phytotoxicity on lettuce plants after spraying. Type of data set: in vivo. The settings on record: 2.5% pelargonic acid, sprayed until run-off, n = 6, scale 0 to 100%. The procedure:
A neutralization reaction was made with pelargonic acid (>97%) and choline hydroxide (45%) based on the titration curve (FIG. 1). Based on the titration curve, a stock solution of choline pelargonate (29.1% PLA (>97%) and 40.4% Choline hydroxide (45%)) was made by mixing 14.55 mL pelargonic acid with 15.25 mL distilled water and afterwards the addition of 20.2 mL choline hydroxide. The choline pelargonate stock solution was diluted in distilled water to obtain a diluted choline pelargonate composition comprising about 2.5% pelargonic acid. The total concentration of choline pelargonate in the water spray solution was 37.08 g a.i./L (a.i.=active ingredient).
The next step was to assess the phytotoxicity of a composition comprising choline pelargonate on lettuce plants. As a control, plants were treated with water. The plants were also treated with a diluted pelargonic acid composition, including a diluted pelargonic acid solution based on the commercial product Beloukha (Belchim Crop Protection).
Lettuce plants were sprayed with a small hand sprayer until run-off with the respective compositions and incubated at 20° C. Each composition was tested with a setup consisting out of six plants. A visual assessment was made on lettuce plants after spraying. The effect of phytotoxicity (necrosis or discolouration) was scored by a scale from 0 to 100%, with 0% no phytotoxicity and 100% fully phytotoxicity on plants.

As for `CCCCCCCCC(=O)[O-].C[N+](C)(C)CCO` [Choline pelargonate, choline pelargonate], the Average mycellium diameter (in the data set with Alternaria solani (0.36% AI in PDA); with Alternaria solani (3.6% AI in PDA); in data set [1] (0.36% AI in PDA); in data set [1] (3.6% AI in PDA); in the data set on Colletotrichum coccodes (0.36% AI in PDA); in the data set on Colletotrichum coccodes (3.6% AI in PDA)) was 0.0 ± 0.0 mm in each case. The Average mycellium diameter in data set [2] (0.36% AI in PDA) and in data set [2] (3.6% AI in PDA) was 0.0 ± 0.0 mm throughout. Besides, the “% inhibition of the pathogens” value (with Alternaria solani (0.36% AI in PDA); in the data set with Alternaria solani (3.6% AI in PDA); in data set [1] (0.36% AI in PDA); in data set [1] (3.6% AI in PDA); in the data set with Colletotrichum coccodes (0.36% AI in PDA); in the data set on Colletotrichum coccodes (3.6% AI in PDA)) was 100% throughout. The “% inhibition of the pathogens” value in data set [2] (0.36% AI in PDA) and in data set [2] (3.6% AI in PDA) was 100% in each case. Besides, the “Phytotoxicity (%) evaluation on lettuce plants” value in the data set with lettuce plants (0 DAA) is 0.00%; in the data set with lettuce plants (1 DAA), 1.33%; in the data set on lettuce plants (2 DAA), 1.67%; in the data set with lettuce plants (7 DAA) it was 3.50%.
